Experimental findings from ChEMBL document CHEMBL6074662, “Antibacterial, Antibiofilm, and Anti-inflammatory Effects of a Novel Thrombin-Derived Peptide in Sepsis Models: Insights into Underlying Mechanisms” (J Med Chem, 2024) are described below.

Values after ≈ are worked out from the molar mass of the structure shown. Active and inactive are the calls of the source. The calls are words filed in the database; no cut-off is given here. Where a SMILES comes first, the peptide text is derived from it. Bridges are numbered along the chain shown (N, C = ends). [ ]: non-standard residue; d: D form. The star is where a group is joined. X1 = CC[C@H](C)CCCCC(=O)*; dDab = NCC[C@@H](N)C(=O)O; Dab = NCC[C@H](N)C(=O)O

The subject of data set [1] is Escherichia coli. As to the kind of experiment: Induction of resistance development in Escherichia coli KCTC 1682 assessed as fold increase in MIC at 0.5 times MIC measured after 30 passages relative to control. Type of data set: functional.
Data set [2] has as its system Staphylococcus aureus. Put plainly: Antibacterial activity against methicillin-resistant Staphylococcus aureus CCARM 3089 incubated for 24 hrs by broth microdilution method. Type of data set: functional.
Data set [3] has as its system Pseudomonas aeruginosa. Put plainly: Antibacterial activity against multi-drug resistant Pseudomonas aeruginosa CCARM 2095 incubated for 24 hrs by broth microdilution method. The format is functional. On the technique in general: In broth dilution the organism is exposed to a series of concentrations in liquid medium.
Data set [4] deals with Staphylococcus aureus. As to the kind of experiment: Bactericidal activity against methicillin-resistant Staphylococcus aureus CCARM 3089 at 128 to 512 uM incubated for 12 hrs by time-kill assay. The format is functional, organism-based. The note with it: dose 128-512 µM.
For data set [5], the system named is Pseudomonas aeruginosa. As to the kind of experiment: Bactericidal activity against multidrug-resistant Pseudomonas aeruginosa CCARM 2095 at 128 to 512 uM incubated for 12 hrs by time-kill assay. Type of data set: functional, organism-based. The note with it: dose 128-512 µM.
Data set [6] has as its system Acinetobacter baumannii. As to the kind of experiment: Antibacterial activity against carbapenem-resistant Acinetobacter baumannii 1707 incubated for 24 hrs by CLSI based broth microdilution method. Type of data set: functional, organism-based.
Data set [7] deals with Acinetobacter baumannii. As to the kind of experiment: Antibacterial activity against carbapenem-resistant Acinetobacter baumannii 1915 incubated for 24 hrs by CLSI based broth microdilution method. The format is functional, organism-based.
The subject of data set [8] is Pseudomonas aeruginosa. As to the kind of experiment: Inhibition of biofilm formation in multi-drug resistant Pseudomonas aeruginosa CCARM 2095 at 4 to 8 uM by crystal violet staining based analysis relative to control. The format is functional. The note with it: dose 4-8 µM.
The test system of data set [9] is Pseudomonas aeruginosa. As to the kind of experiment: Eradication of biofilm formation in multi-drug resistant Pseudomonas aeruginosa CCARM 2095 at 32 uM incubated for 12 hrs by CLSM analysis relative to control. The format is functional.
For data set [10], the system named is Enterococcus faecium. As to the kind of experiment: Antibacterial activity against vancomycin-resistant Enterococcus faecium ATCC 51559 incubated for 24 hrs by CLSI based broth microdilution method. Type of data set: functional.
For data set [11], the system named is Acinetobacter baumannii. Put plainly: Antibacterial activity against multidrug-resistant Acinetobacter baumannii 329-53 incubated for 24 hrs by CLSI based broth microdilution method. Type of data set: functional.
Data set [12] has as its system Acinetobacter baumannii. As to the kind of experiment: Antibacterial activity against multidrug-resistant Acinetobacter baumannii 329-97 incubated for 24 hrs by CLSI based broth microdilution method. The format is functional.
Data set [13] relates to Acinetobacter baumannii. As to the kind of experiment: Antibacterial activity against carbapenem-resistant Acinetobacter baumannii CCARM 12005 incubated for 24 hrs by CLSI based broth microdilution method. Type of data set: functional.
The subject of data set [14] is Acinetobacter baumannii. Put plainly: Antibacterial activity against carbapenem-resistant Acinetobacter baumannii NMS 1707 incubated for 24 hrs by CLSI based broth microdilution method. The format is functional.
Data set [15] has as its system Acinetobacter baumannii. Put plainly: Antibacterial activity against carbapenem-resistant Acinetobacter baumannii NMS 1915 incubated for 24 hrs by CLSI based broth microdilution method. The format is functional.
A short description of data set [16]: Hemolytic activity in sheep RBC incubated for 1 hr by absorbance based assay. Type of data set: toxicity, cell-based, Ovis aries. The note with it: erythrocyte.
For data set [17], the system named is Escherichia coli. As to the kind of experiment: Induction of inner membrane permeabilization in Escherichia coli KCTC 1682 at MIC by PI staining based flow cytometry (reference value: 1.51 %). The format is functional. For orientation: In flow cytometry, cells or beads pass a laser one at a time.
Data set [18] has as its system Lipopolysaccharide (LPS). Put plainly: Disaggregation of FITC-labeled Escherichia coli 0111:B4 LPS assessed as increase in fluorescence intensity at higher concentration.

As a reminder, the MIC is the lowest concentration that inhibits growth of the organism. High values mean a less susceptible organism, low ones a more susceptible organism. As to `O=C(O)c1cn(C2CC2)c2cc(N3CCNCC3)c(F)cc2c1=O` [CIPROFLOXACIN], the “fold change (FC)” value in [1] worked out at 8192. Also, the MIC in data set [2] and in data set [3] was 1020 µM (≈ 339 µg/mL) throughout.

For the molecule `Cc1onc(-c2ccccc2)c1C(=O)N[C@@H]1C(=O)N2[C@@H]1SC(C)(C)[C@@H]2C(=O)O` [OXACILLIN], the figures for the MIC in data set [2] and in data set [3] were 2050 µM (≈ 822 µg/mL) and 4100 µM (≈ 1640 µg/mL), respectively. In addition, the result in [4] and in data set [5] was inactive.

In the case of `C[C@@H](O)[C@H]1C(=O)N2C(C(=O)O)=C(SCCNC=N)C[C@H]12`, the outcome in [6] and in data set [7] was inactive.

Turning to `CC[C@H](C)[C@H](NC(=O)[C@H](CCCCN)NC(=O)[C@H](CCC(=O)O)NC(=O)[C@H](CCCCN)NC(=O)[C@H](CO)NC(=O)[C@H](CCCCN)NC(=O)[C@H](CCCNC(=N)N)NC(=O)[C@H](Cc1ccccc1)NC(=O)[C@H](Cc1ccccc1)NC(=O)[C@H](CC(=O)O)NC(=O)CNC(=O)[C@H](CC(C)C)NC(=O)[C@@H](N)CC(C)C)C(=O)NCC(=O)N[C@@H](CCCCN)C(=O)N[C@@H](CCC(=O)O)C(=O)N[C@@H](Cc1ccccc1)C(=O)N[C@@H](CCCCN)C(=O)N[C@@H](CCCNC(=N)N)C(=O)N[C@H](C(=O)N[C@H](C(=O)N[C@@H](CCC(N)=O)C(=O)N[C@@H](CCCNC(=N)N)C(=O)N[C@H](C(=O)N[C@@H](CCCCN)C(=O)N[C@@H](CC(=O)O)C(=O)N[C@@H](Cc1ccccc1)C(=O)N[C@@H](CC(C)C)C(=O)N[C@@H](CCCNC(=N)N)C(=O)N[C@@H](CC(N)=O)C(=O)N[C@@H](CC(C)C)C(=O)N[C@H](C(=O)N1CCC[C@H]1C(=O)N[C@@H](CCCNC(=N)N)C(=O)N[C@H](C(=O)N[C@@H](CCC(=O)O)C(=O)N[C@@H](CO)C(=O)O)[C@@H](C)O)C(C)C)[C@@H](C)CC)C(C)C)[C@@H](C)CC` [CATHELICIDIN], the “inhibition (INH)” value in [8] is >50%. Also, in data set [9], the Activity is on record as >50%.

For the molecule `CN(C)[C@@H]1C(O)=C(C(N)=O)C(=O)[C@@]2(O)C(O)=C3C(=O)c4c(O)cccc4[C@@](C)(O)[C@H]3C[C@@H]12` [TETRACYCLINE], in [1], the “fold change (FC)” value was found to be 256.

`CC[C@H](C)[C@H](NC(=O)CN)C(=O)NCC(=O)N[C@@H](C)C(=O)N[C@H](C(=O)N[C@@H](CC(C)C)C(=O)N[C@@H](CCCCN)C(=O)N[C@H](C(=O)N[C@@H](CC(C)C)C(=O)N[C@H](C(=O)N[C@H](C(=O)NCC(=O)N[C@@H](CC(C)C)C(=O)N1CCC[C@H]1C(=O)N[C@@H](C)C(=O)N[C@@H](CC(C)C)C(=O)N[C@H](C(=O)N[C@@H](CO)C(=O)N[C@@H](Cc1c[nH]c2ccccc12)C(=O)N[C@H](C(=O)N[C@@H](CCCCN)C(=O)N[C@@H](CCCNC(=N)N)C(=O)N[C@@H](CCCCN)C(=O)N[C@@H](CCCNC(=N)N)C(=O)N[C@@H](CCC(N)=O)C(=O)N[C@@H](CCC(N)=O)C(N)=O)[C@@H](C)CC)[C@@H](C)CC)[C@@H](C)O)[C@@H](C)O)C(C)C)C(C)C` [MELITTIN]: the MIC is 2 µM (≈ 5.69 µg/mL) in data set [10]; 2 µM (≈ 5.69 µg/mL) in data set [11]; 2 µM (≈ 5.69 µg/mL) in data set [12]; 8 µM (≈ 22.8 µg/mL) in data set [13]; 8 µM (≈ 22.8 µg/mL) in data set [14]; 4 µM (≈ 11.4 µg/mL) in data set [15]. For the same molecule, the HC10 in data set [16] was found to be 2.2 µM. For the same molecule, the Activity in data set [17] is given as ~100%.

As for `CC(C)CCCCC(=O)N[C@@H](CCN)C(=O)N[C@H](C(=O)N[C@@H](CCN)C(=O)N[C@H]1CCNC(=O)[C@H]([C@@H](C)O)NC(=O)[C@H](CCN)NC(=O)[C@H](CCN)NC(=O)[C@H](CC(C)C)NC(=O)[C@@H](Cc2ccccc2)NC(=O)[C@@H](CCN)NC1=O)[C@@H](C)O.CC[C@H](C)CCCCC(=O)N[C@@H](CCN)C(=O)N[C@H](C(=O)N[C@@H](CCN)C(=O)N[C@H]1CCNC(=O)[C@H]([C@@H](C)O)NC(=O)[C@H](CCN)NC(=O)[C@H](CCN)NC(=O)[C@H](CC(C)C)NC(=O)[C@@H](Cc2ccccc2)NC(=O)[C@@H](CCN)NC1=O)[C@@H](C)O` (X1-[Dab]T[Dab][Dab][dDab][dF]L[Dab][Dab]T; lactam 4-C), the result in data set [18] was inactive.
